SMILES strings stand for the structures.

For one assay, the target named is T1, hMAO-A (human MAO-A) (Homo sapiens, UniProt P21397).
T1 sequence (P21397 1-527): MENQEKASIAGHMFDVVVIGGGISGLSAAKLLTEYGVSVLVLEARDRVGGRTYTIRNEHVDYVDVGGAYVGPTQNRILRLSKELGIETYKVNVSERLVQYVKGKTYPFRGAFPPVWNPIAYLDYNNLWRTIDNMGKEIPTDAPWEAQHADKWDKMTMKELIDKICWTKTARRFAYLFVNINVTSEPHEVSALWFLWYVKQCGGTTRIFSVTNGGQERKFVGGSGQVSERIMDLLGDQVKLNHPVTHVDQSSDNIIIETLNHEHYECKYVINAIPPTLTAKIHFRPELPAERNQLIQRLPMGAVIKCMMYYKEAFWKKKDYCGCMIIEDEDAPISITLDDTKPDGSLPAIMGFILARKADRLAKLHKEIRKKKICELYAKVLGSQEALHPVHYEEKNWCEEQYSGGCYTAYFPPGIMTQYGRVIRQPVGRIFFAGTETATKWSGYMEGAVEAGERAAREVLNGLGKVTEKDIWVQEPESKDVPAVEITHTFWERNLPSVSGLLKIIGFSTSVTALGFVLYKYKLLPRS
The assay can be described thus: Inhibition of hMAO-A. As to conditions: for remaining activity at 10 µM: read-out: hMAO-A RA (residual activity) at 10 μM; for remaining activity at 100 µM: read-out: hMAO-A RA (residual activity) at 100 μM.

A further assay concerns the target hBChE (human BChE) (Homo sapiens, UniProt P06276). The assay can be described thus: Inhibition of hBChE. In kind it is biochemical. As to conditions: for remaining activity at 10 µM: read-out: hBChE RA (residual activity) at 10 μM; for remaining activity at 100 µM: read-out: hBChE RA (residual activity) at 100 μM.
The next assay deals with hAChE (human AChE) (Homo sapiens, UniProt P22303). The assay can be described thus: Inhibition of hAChE. In kind it is biochemical. The conditions noted are these: for remaining activity at 10 µM: read-out: hAChE RA (residual activity) at 10 μM; for remaining activity at 100 µM: read-out: hAChE RA (residual activity) at 100 μM.
For another assay, the target named is T2, hMAO-B (human MAO-B) (Homo sapiens, UniProt P27338).
T2 sequence (P27338 1-520): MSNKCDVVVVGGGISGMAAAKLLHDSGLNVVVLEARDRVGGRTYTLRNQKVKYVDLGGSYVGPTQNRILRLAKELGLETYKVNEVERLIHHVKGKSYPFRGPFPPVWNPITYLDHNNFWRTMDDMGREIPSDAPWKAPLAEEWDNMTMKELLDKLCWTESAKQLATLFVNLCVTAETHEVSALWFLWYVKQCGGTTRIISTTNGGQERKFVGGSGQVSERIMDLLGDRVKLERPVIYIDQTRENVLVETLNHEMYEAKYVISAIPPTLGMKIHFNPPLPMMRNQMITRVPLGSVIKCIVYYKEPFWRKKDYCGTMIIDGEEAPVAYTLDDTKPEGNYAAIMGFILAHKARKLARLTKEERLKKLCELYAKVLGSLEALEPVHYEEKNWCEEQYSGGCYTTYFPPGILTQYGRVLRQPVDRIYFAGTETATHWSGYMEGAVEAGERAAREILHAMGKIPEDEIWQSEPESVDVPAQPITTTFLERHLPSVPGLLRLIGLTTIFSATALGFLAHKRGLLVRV
The assay can be described thus: Inhibition of hMAO-B. The assay is classed as biochemical. The conditions noted are these: for remaining activity at 10 µM: read-out: hMAO-B RA (residual activity) at 10 μM; for remaining activity at 100 µM: read-out: hMAO-B RA (residual activity) at 100 μM; for inhibition of hMAO-B (in words): versus hAChE, hBChE, hMAO-A.

For assay [1] the following is noted: ref 29b,37; cited from earlier work.

Sequence of hAChE (human AChE) (P22303 32-614): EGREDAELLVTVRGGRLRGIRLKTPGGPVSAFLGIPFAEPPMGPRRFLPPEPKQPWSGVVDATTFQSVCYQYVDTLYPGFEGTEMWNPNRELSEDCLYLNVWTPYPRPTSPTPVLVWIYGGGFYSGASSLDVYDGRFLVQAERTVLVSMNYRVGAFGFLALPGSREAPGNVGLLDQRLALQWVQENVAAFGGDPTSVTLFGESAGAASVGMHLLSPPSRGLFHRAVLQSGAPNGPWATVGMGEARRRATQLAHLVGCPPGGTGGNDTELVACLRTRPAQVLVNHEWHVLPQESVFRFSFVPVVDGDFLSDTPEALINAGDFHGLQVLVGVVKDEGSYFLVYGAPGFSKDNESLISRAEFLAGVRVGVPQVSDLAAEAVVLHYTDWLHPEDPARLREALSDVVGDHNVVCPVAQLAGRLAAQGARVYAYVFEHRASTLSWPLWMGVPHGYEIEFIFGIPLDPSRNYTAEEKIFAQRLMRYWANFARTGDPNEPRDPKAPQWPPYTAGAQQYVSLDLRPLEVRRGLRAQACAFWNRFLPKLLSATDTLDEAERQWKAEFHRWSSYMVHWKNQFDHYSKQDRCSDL
Sequence of hBChE (human BChE) (P06276 29-602): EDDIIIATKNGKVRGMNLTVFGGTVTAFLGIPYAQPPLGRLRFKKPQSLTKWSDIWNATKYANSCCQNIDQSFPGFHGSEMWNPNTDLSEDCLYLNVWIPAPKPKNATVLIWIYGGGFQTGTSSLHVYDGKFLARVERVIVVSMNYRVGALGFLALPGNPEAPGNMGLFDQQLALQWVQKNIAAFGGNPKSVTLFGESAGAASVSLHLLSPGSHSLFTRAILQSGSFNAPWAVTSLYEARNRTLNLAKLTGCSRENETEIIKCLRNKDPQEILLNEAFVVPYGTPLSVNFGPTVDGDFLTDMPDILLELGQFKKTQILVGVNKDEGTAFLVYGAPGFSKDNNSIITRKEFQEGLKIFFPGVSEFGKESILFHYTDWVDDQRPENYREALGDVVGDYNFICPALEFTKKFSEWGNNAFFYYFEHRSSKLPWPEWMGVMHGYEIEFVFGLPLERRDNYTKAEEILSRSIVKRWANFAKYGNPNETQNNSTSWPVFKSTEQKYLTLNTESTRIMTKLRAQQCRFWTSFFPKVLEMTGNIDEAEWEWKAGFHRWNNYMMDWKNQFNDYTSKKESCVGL

What is called IC50 is the point on the concentration scale where inhibition reaches its midpoint. With `O=c1cc(C(F)(F)F)n2ncc(-c3ccc4c(c3)OCCO4)c2[nH]1` [Compound 5h, 3-(2,3-Dihydrobenzo[b][1,4]dioxin-6-yl)-7-(trifluoromethyl)pyrazolo[1,5-a]pyrimidin-5(4H)-one], at hMAO-A (human MAO-A), the remaining activity at 10 µM was 110% and the remaining activity at 100 µM was determined as 95%. At hBChE (human BChE), the remaining activity at 10 µM was 94% and the remaining activity at 100 µM was 95%. At hAChE (human AChE), the remaining activity at 10 µM was found to be 91% and the remaining activity at 100 µM was 86%. Further, at hMAO-B (human MAO-B), the IC50 is 5.36 µM, the remaining activity at 10 µM came out at 36%, the remaining activity at 100 µM was 8% and the “inhibition of hMAO-B (in words)” value is recorded as “selectively inhibit hMAO-B in the micromolar range”.

Consider `CC(=O)c1ccc(-c2cnn3c(C(F)(F)F)cc(=O)[nH]c23)cc1` [Compound 5i, 3-(4-Acetylphenyl)-7-(trifluoromethyl)pyrazolo[1,5-a]pyrimidin-5(4H)-one], for which, at hMAO-A (human MAO-A), the remaining activity at 10 µM was determined as 100% and the remaining activity at 100 µM was 98%. At hBChE (human BChE), the remaining activity at 10 µM turned out to be 91% and the remaining activity at 100 µM was 99%. Moreover, at hAChE (human AChE), the remaining activity at 10 µM came to 90% and the remaining activity at 100 µM was found to be 91%. Moreover, on hMAO-B (human MAO-B), half-maximal inhibition (IC50) was put at 26.2 µM, the remaining activity at 10 µM turned out to be 75%, the remaining activity at 100 µM was 21% and the “inhibition of hMAO-B (in words)” value is on record as “selectively inhibit hMAO-B in the micromolar range”.

Regarding `COc1ccc(-c2cnn3c(C(F)(F)F)cc(=O)[nH]c23)cc1` [Compound 5a, 3-(4-Methoxyphenyl)-7-(trifluoromethyl)pyrazolo[1,5-a]pyrimidin-5(4H)-one], the remaining activity at 10 µM was found to be 95% at hMAO-A (human MAO-A), 90% on hBChE (human BChE), 93% at hAChE (human AChE) and 73% on hMAO-B (human MAO-B). The remaining activity at 100 µM at hMAO-A (human MAO-A) worked out at 99%; on hBChE (human BChE), 103%; at hAChE (human AChE), 86%; at hMAO-B (human MAO-B), 26%. The compound further came in with an IC50 against hMAO-B (human MAO-B) of 35 µM. Besides, the “inhibition of hMAO-B (in words)” value at hMAO-B (human MAO-B) is reported as “selectively inhibit hMAO-B in the micromolar range”.

As to `COc1cccc(-c2cnn3c(C(F)(F)F)cc(=O)[nH]c23)c1` [Compound 5f, 3-(3-Methoxyphenyl)-7-(trifluoromethyl)pyrazolo[1,5-a]pyrimidin-5(4H)-one], on hMAO-A (human MAO-A), the remaining activity at 10 µM is 92% and the remaining activity at 100 µM stood at 97%. On hBChE (human BChE), the remaining activity at 10 µM was found to be 97% and the remaining activity at 100 µM amounted to 95%. On hAChE (human AChE), the remaining activity at 10 µM came out at 91% and the remaining activity at 100 µM came to 88%. On hMAO-B (human MAO-B), the IC50 turned out to be 101 µM, the remaining activity at 10 µM came to 80%, the remaining activity at 100 µM was 40% and the “inhibition of hMAO-B (in words)” value was “selectively inhibit hMAO-B in the micromolar range”.

`COc1ccc2c(c1)c(CC(=O)O)c(C)n2C(=O)c1ccc(Cl)cc1` [Indomethacin, reference compound]: the anti-inflammatory activity in assay [1] is 84.2%.

`FC(F)(F)c1cc(-c2ccc(Br)cc2)nc2c(-c3ccccc3)cnn12` [Compound 11h, 5-(4-Bromophenyl)-3-phenyl-7-(trifluoromethyl)pyrazolo[1,5-a]pyrimidine]: in assay [1], the anti-inflammatory activity is on record as 83.4%.
